Drawing on BindingDB's records for doi:10.7270/Q2N014XN (Srmlsc, 2007), this text covers IC50 for 42 compounds.

The target in the assay is T1, Diphosphomevalonate decarboxylase (Streptococcus pneumoniae serotype 2 (strain D39 / NCTC 7466), UniProt A0A0H2ZN59).
T1 sequence (A0A0H2ZN59 whole entry): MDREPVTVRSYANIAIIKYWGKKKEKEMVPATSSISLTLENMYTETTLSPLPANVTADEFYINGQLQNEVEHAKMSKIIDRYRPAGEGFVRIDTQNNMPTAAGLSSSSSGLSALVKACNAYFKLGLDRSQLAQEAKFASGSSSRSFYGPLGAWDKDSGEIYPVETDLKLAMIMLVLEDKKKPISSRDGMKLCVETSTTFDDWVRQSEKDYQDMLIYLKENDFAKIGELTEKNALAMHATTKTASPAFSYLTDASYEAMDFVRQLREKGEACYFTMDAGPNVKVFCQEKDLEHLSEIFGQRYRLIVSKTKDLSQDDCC
Kind of assay: diphosphomevalonate decarboxylase inhibition dose curves – biochemical, PK/LDH-coupled NADH fluorescence, hexokinase coupling counter-screen, dose response (AID 550). Background: The purpose of a counterscreen is to sort out artefacts and off-target activity.

[1] abbreviates: inactive by the depositor's call.

Where a name gives a salt, the structure may show the parent alone. Some results are limits rather than exact numbers.

A word on the IC50: it is the concentration that gives 50% inhibition. The compound `N#Cc1c(C(F)(F)F)cc(-c2ccco2)nc1SCc1ccncc1` [6-(2-furanyl)-2-(pyridin-4-ylmethylthio)-4-(trifluoromethyl)-3-pyridinecarbonitrile] showed an IC50 above 10000 µM.
The same measure, in the same setting: then `COc1ccc(-c2nn3c(-c4ccco4)nnc3s2)cc1OC` [6-(3,4-dimethoxyphenyl)-3-(2-furanyl)-[1,2,4]triazolo[3,4-b][1,3,4]thiadiazole], with 235 µM; and `COc1ccc(-c2nn3c(-c4ccccn4)nnc3s2)cc1OC` [6-(3,4-dimethoxyphenyl)-3-(2-pyridinyl)-[1,2,4]triazolo[3,4-b][1,3,4]thiadiazole], with 89.8 µM.
Take `COC(=O)C1=C(C)OC(=N)C(C#N)C1c1cc(OC)c(OCC(N)=O)cc1Cl` (configuration not stated) [6-Amino-4-(4-carbamoylmethoxy-2-chloro-5-methoxy-phenyl)-5-cyano-2-methyl-4H-pyran-3-carboxylic acid methyl ester]: the IC50 is above 10000 µM.
The compound `CCn1c2ccccc2c2nc3cc(OC)c(OC)cc3nc21` [6-Ethyl-2,3-dimethoxy-6H-indolo[2,3-b]quinoxaline] displayed an IC50 of 30.6 µM.
Turning to `CC1(C)CC(=O)c2cc(OCC(=O)N3CCN(c4ccccc4F)CC3)ccc2O1` [6-[2-[4-(2-fluorophenyl)-1-piperazinyl]-2-oxoethoxy]-2,2-dimethyl-3,4-dihydro-2H-1-benzopyran-4-one], the IC50 worked out at 37 µM.
Regarding `CCOC(=O)c1c(C)n(OCc2ccccc2)c2ccc3c(n[o+]n3[O-])c12` [6-benzoxy-7-methyl-3-oxido-pyrrolo[2,3-g][2,1,3]benzoxadiazol-3-ium-8-carboxylic acid ethyl ester], the IC50 was above 10000 µM.
Still for that read-out and setting: the same measure for `COCCn1nnnc1CN(Cc1cccnc1)Cc1cc2cc(OC)ccc2[nH]c1=O` [6-methoxy-3-[[[1-(2-methoxyethyl)-5-tetrazolyl]methyl-(3-pyridinylmethyl)amino]methyl]-1H-quinolin-2-one]: above 10000 µM; for `COc1ccc2nc3oc(C(=O)NCc4cccs4)cc3cc2c1` [6-methoxy-N-(2-thenyl)furo[2,3-b]quinoline-2-carboxamide]: 13.9 µM; for `Cc1cc(N2CCN(C3CCCC3)CC2)n2nc(C)c(-c3ccccc3)c2n1` [7-(4-cyclopentyl-1-piperazinyl)-2,5-dimethyl-3-phenylpyrazolo[1,5-a]pyrimidine]: above 10000 µM.
For the compound `COC(=O)c1c(C(=O)OC)c2ccncn2c1Cl` [7-Chloro-pyrrolo[1,2-c]pyrimidine-5,6-dicarboxylic acid dimethyl ester], the IC50 came to 26.8 µM.
Same read-out and setting: the same measure for `CC(C)(C)n1nnnc1C(c1cc2cc3c(cc2[nH]c1=O)OCO3)N1CCN(c2ccccc2)CC1` (configuration not stated) [7-[(1-tert-butyl-1,2,3,4-tetrazol-5-yl)-(4-phenylpiperazin-1-yl)methyl]-5H-[1,3]dioxolo[4,5-g]quinolin-6-one]: 57 µM.
`O=c1[nH]c2cc3c(cc2cc1CN(CCCO)Cc1nnnn1Cc1ccc(F)cc1)OCO3` [7-[[[1-[(4-fluorophenyl)methyl]-1,2,3,4-tetrazol-5-yl]methyl-(3-oxidanylpropyl)amino]methyl]-5H-[1,3]dioxolo[4,5-g]quinolin-6-one] registered an IC50 of 54.1 µM.
For the compound `Cc1cc(-c2ccccc2)nc2cc(C(N)=O)nn12` [7-methyl-5-phenyl-2-pyrazolo[1,5-a]pyrimidinecarboxamide], the IC50 is above 10000 µM.
Take `CC1(C)Cc2nc3sc4c(=O)[nH]cnc4c3cc2CS1` [8,8-dimethyl-7,10-dihydro-8H-thiopyrano[3'',4'':5',6']pyrido[3',2':4,5]thieno[3,2-d]pyrimidin-4(3H)-one]: the IC50 was determined as 108 µM.
Still for that read-out and setting: then `Cc1cccc(OCC(O)Cn2c(-n3nc(C)cc3C)nc3c2c(=O)[nH]c(=O)n3C)c1` (configuration not stated) [8-(3,5-dimethylpyrazol-1-yl)-7-[2-hydroxy-3-(3-methylphenoxy)propyl]-3-methylpurine-2,6-dione], with above 10000 µM; and `O=C1CC(c2cccnc2)c2cc3c(cc2N1)OCO3` (configuration not stated) [8-(3-pyridinyl)-7,8-dihydro-5H-[1,3]dioxolo[4,5-g]quinolin-6-one], with above 10000 µM.
The compound `C/C=C/Cn1c(N(C)Cc2ccccc2)nc2c1c(=O)[nH]c(=O)n2C` [8-[benzyl(methyl)amino]-7-[(E)-but-2-enyl]-3-methylpurine-2,6-dione] displayed an IC50 above 10000 µM.
Consider `COc1cccc2cc3c(=O)n(-c4ccccc4)nc-3oc12` [8-methoxy-2-phenyl-3-[1]benzopyrano[2,3-c]pyrazolone], for which the IC50 was above 10000 µM.
On to `COc1ccc(-c2cc(C(F)(F)F)n3nc(C(=O)N4CCC5(CC4)OCCO5)cc3n2)cc1OC` [8-{[5-(3,4-dimethoxyphenyl)-7-(trifluoromethyl)pyrazolo[1,5-a]pyrimidin-2-yl]carbonyl}-1,4-dioxa-8-azaspiro[4.5]decane], for which the half-maximal inhibitory concentration (IC50) is 75.3 µM.
`CCn1c2c(c3cc(C(=O)O)ccc31)CCCC2=O` [9-ethyl-1-oxo-2,3,4,9-tetrahydro-1H-carbazole-6-carboxylic acid] came in with an IC50 of 78.5 µM.
`O=C(O)c1cccn2c(=O)c3ccccc3nc12` [11-Oxo-11H-pyrido[2,1-b]quinazoline-6-carboxylic acid] had an IC50 under setting [1] of 66.7 µM.
For the compound `Cc1ccc(S(=O)(=O)N2CCOCC(=O)NCCOCCNC(=O)COCC2)cc1` [16-(4-methylphenyl)sulfonyl-1,7,13-trioxa-4,10,16-triazacyclooctadecane-3,11-dione], the half-maximal inhibitory concentration (IC50) is above 10000 µM.
In turn, `Cn1ncc2c(Nc3ccc(-c4ccccc4)cc3)ncnc21` [(1-methylpyrazolo[3,4-d]pyrimidin-4-yl)-(4-phenylphenyl)amine] showed an IC50 of 53.7 µM.
`COc1cccc(C=Nn2c(C)nnc2C)c1OC` [(2,3-dimethoxybenzylidene)-(3,5-dimethyl-1,2,4-triazol-4-yl)amine] displayed an IC50 above 10000 µM.
Take `O=NC1=C(Cc2ccco2)CCC1` [(2E)-2-(2-furanylmethylidene)-1-cyclopentanone oxime]: the IC50 is above 10000 µM.
Compound `CN(C)[C@@H]1C(=O)C(C(N)=O)C(=O)[C@@]2(O)C(=O)C3C(=O)c4c(O)cccc4[C@@](C)(O)[C@H]3[C@H](O)[C@@H]12` (stereo partly drawn) [(2E,4S,4aR,5S,5aR,6S,12aS)-2-[azanyl(oxidanyl)methylidene]-4-(dimethylamino)-6-methyl-5,6,10,11,12a-pentakis(oxidanyl)-4,4a,5,5a-tetrahydrotetracene-1,3,12-trione] yielded an IC50 of 36.8 µM.
The compound `COc1cc2c(cc1OC)C(CC(=O)N1CCOCC1)=NC(C)(C)C2` [(2Z)-2-(6,7-dimethoxy-3,3-dimethyl-2,4-dihydroisoquinolin-1-ylidene)-1-(4-morpholinyl)ethanone;hydrochloride] returned an IC50 of 38.8 µM.
Take `COc1ccc(N2C(C)=CS/C2=C(/C#N)c2nnc(N3CCOCC3)n2-c2ccccc2)cc1` [(2Z)-2-[3-(4-methoxyphenyl)-4-methyl-1,3-thiazol-2-ylidene]-2-(5-morpholin-4-yl-4-phenyl-1,2,4-triazol-3-yl)acetonitrile]: the IC50 was above 10000 µM.
Compound `CC(C)C(OC(=O)CN1C(=O)COc2ccccc21)C(=O)NC1CCCC1` (configuration not stated) [(3-Oxo-2,3-dihydro-benzo[1,4]oxazin-4-yl)-acetic acid 1-cyclopentylcarbamoyl-2-methyl-propyl ester] returned a half-inhibitory concentration (IC50) above 10000 µM.
Turning to `Cc1cc(O)c(C=Nc2cccc(Cl)c2)c(=O)o1` [(3Z)-3-[(3-chloroanilino)methylene]-6-methyl-pyran-2,4-quinone], the IC50 was above 10000 µM.
Take `Clc1ccc2c(c1)[C@H]1OCC[C@H]1[C@@H](c1ccco1)N2` [(3aS,4S,9bS)-8-chloranyl-4-(furan-2-yl)-2,3,3a,4,5,9b-hexahydrofuro[3,2-c]quinoline]: under setting [1], the IC50 was determined as 24.4 µM.
Under setting [1], `CCC(=O)Oc1ccc2c(C)cc(=O)oc2c1C` [(4,8-dimethyl-2-oxidanylidene-chromen-7-yl) propanoate] displayed an IC50 of 29.9 µM.
With `COc1cccc(C(=O)OCn2nnc3ccccc3c2=O)c1` [(4-oxidanylidene-1,2,3-benzotriazin-3-yl)methyl 3-methoxybenzoate], the IC50 was above 10000 µM.
Take `CC(=NCc1ccco1)c1c(C)[nH]n(-c2nc3ccccc3s2)c1=O` [(4Z)-2-(1,3-benzothiazol-2-yl)-4-[1-(furan-2-ylmethylamino)ethylidene]-5-methyl-pyrazol-3-one]: the concentration for half-maximal inhibition (IC50) was above 10000 µM.
`Cc1cc(N2CCOCC2)c2c(N)c(Br)cc(C)c2n1` [(6-bromo-2,8-dimethyl-4-morpholino-5-quinolyl)amine]: the 50% inhibitory concentration (IC50) is above 10000 µM.
Consider `CCc1cc(C(Cc2ccc3ccccc3n2)N=O)c(O)cc1O` (configuration not stated) [(6Z)-4-ethyl-3-hydroxy-6-[1-(hydroxyamino)-2-(2-quinolinyl)ethylidene]-1-cyclohexa-2,4-dienone], for which the half-inhibitory concentration (IC50) is above 10000 µM.
The compound `N#C/C(=C\C1CC=CCC1)c1nc2ccccc2[nH]1` (configuration not stated) [(E)-2-(1H-benzimidazol-2-yl)-3-cyclohex-3-en-1-ylprop-2-enenitrile] gave an IC50 above 10000 µM.
In the case of `C/C(C=Nn1cnnc1)=C\c1ccco1` [(E)-3-(2-furanyl)-2-methyl-N-(1,2,4-triazol-4-yl)-2-propen-1-imine], the IC50 under setting [1] came to 125 µM.
On to `CCCn1c(=O)c2ccccc2n2c(SCC(=O)C(C#N)C(C)=N)nnc12` (configuration not stated) [(E)-3-amino-2-[1-oxo-2-[(5-oxo-4-propyl-[1,2,4]triazolo[4,3-a]quinazolin-1-yl)thio]ethyl]-2-butenenitrile], for which the IC50 is above 10000 µM.
With `CC(O)COc1ccc(C(N=O)c2ccccc2)cc1` (configuration not stated) [(E)-[4-(2-hydroxypropoxy)phenyl](phenyl)methanone oxime], the IC50 was above 10000 µM.
As to `COc1ccccc1N1CCN(C(=O)CSc2nnc(NC(=O)c3ccco3)s2)CC1` [Furan-2-carboxylic acid (5-{2-[4-(2-methoxy-phenyl)-piperazin-1-yl]-2-oxo-ethylsulfanyl}-[1,3,4]thiadiazol-2-yl)-amide], the IC50 was found to be 262 µM.
